Data reported in PubChem BioAssay (NCI).
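Growth conditions: 96-well plates. Treatment: test compound, 48 hours, 5 concentrations. Analysis: linear interpolation between bracketing concentrations; unreached endpoints set to highest concentration. GI50: concentration for 50% inhibition of growth. TGI: total growth inhibition.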

What was measured:
Assay in all cases: DTP human tumour cell line panel, 48 h
SF-268 CNS = test system: SF-268 CNS
HCT-15 colon = test system: HCT-15 colon
OVCAR-3 ovarian = test system: OVCAR-3 ovarian
MDA-MB-435 = test system: MDA-MB-435
HOP-92 NSCLC = test system: HOP-92 NSCLC
TK-10 renal = test system: TK-10 renal
SK-MEL-2 melanoma = test system: SK-MEL-2 melanoma
EKVX NSCLC = test system: EKVX NSCLC
SF-295 CNS = test system: SF-295 CNS
A549 NSCLC = test system: A549 NSCLC
786-0 renal = test system: 786-0 renal
NCI-H522 lung = test system: NCI-H522 lung
HT29 colon = test system: HT29 colon
SK-MEL-28 melanoma = test system: SK-MEL-28 melanoma
M14 melanoma = test system: M14 melanoma
CAKI-1 renal = test system: CAKI-1 renal
K-562 leukemia = test system: K-562 leukemia
SNB-19 CNS = test system: SNB-19 CNS
BT-549 breast = test system: BT-549 breast
UACC-257 melanoma = test system: UACC-257 melanoma
HOP-62 NSCLC = test system: HOP-62 NSCLC
HL-60(TB) leukemia = test system: HL-60(TB) leukemia
RPMI-8226 leukemia = test system: RPMI-8226 leukemia
LOX IMVI melanoma = test system: LOX IMVI melanoma
RXF 393 renal = test system: RXF 393 renal
CCRF-CEM leukemia = test system: CCRF-CEM leukemia
NCI-H23 lung = test system: NCI-H23 lung
DU-145 prostate = test system: DU-145 prostate
SK-OV-3 ovarian = test system: SK-OV-3 ovarian

Structure (SMILES): Brc1c[n+](Cc2ccc3ccccc3c2)cn1Cc1ccc2ccccc2c1
- GI50 (SF-268 CNS): 1470 nM
- TGI (SF-268 CNS): 3020 nM
- GI50 (HCT-15 colon): 11500 nM
- TGI (HCT-15 colon): 25700 nM
- GI50 (OVCAR-3 ovarian): 1410 nM
- TGI (OVCAR-3 ovarian): 2860 nM
- GI50 (MDA-MB-435): 1690 nM
- TGI (MDA-MB-435): 3220 nM
- GI50 (HOP-92 NSCLC): 904 nM
- TGI (HOP-92 NSCLC): 2390 nM
- GI50 (TK-10 renal): 1860 nM
- TGI (TK-10 renal): 5160 nM
- GI50 (SK-MEL-2 melanoma): 1810 nM
- TGI (SK-MEL-2 melanoma): 3900 nM
- GI50 (EKVX NSCLC): 9930 nM
- TGI (EKVX NSCLC): 25000 nM
- GI50 (SF-295 CNS): 2220 nM
- TGI (SF-295 CNS): 7280 nM
- GI50 (A549 NSCLC): 6900 nM
- TGI (A549 NSCLC): 29400 nM
- GI50 (786-0 renal): 1750 nM
- TGI (786-0 renal): 3330 nM
- GI50 (NCI-H522 lung): 1530 nM
- TGI (NCI-H522 lung): 3850 nM
- GI50 (HT29 colon): 1190 nM
- TGI (HT29 colon): 3350 nM
- GI50 (SK-MEL-28 melanoma): 1550 nM
- TGI (SK-MEL-28 melanoma): 3090 nM
- GI50 (M14 melanoma): 1400 nM
- TGI (M14 melanoma): 2920 nM
- GI50 (CAKI-1 renal): 2030 nM
- TGI (CAKI-1 renal): 5170 nM
- GI50 (K-562 leukemia): 1840 nM
- TGI (K-562 leukemia): 10600 nM
- GI50 (SNB-19 CNS): 1410 nM
- TGI (SNB-19 CNS): 2750 nM
- GI50 (BT-549 breast): 1690 nM
- TGI (BT-549 breast): 3180 nM
- GI50 (UACC-257 melanoma): 1760 nM
- TGI (UACC-257 melanoma): 4120 nM
- GI50 (HOP-62 NSCLC): 2160 nM
- TGI (HOP-62 NSCLC): 5960 nM
- GI50 (HL-60(TB) leukemia): 1150 nM
- TGI (HL-60(TB) leukemia): 3680 nM
- GI50 (RPMI-8226 leukemia): 1020 nM
- TGI (RPMI-8226 leukemia): 3060 nM
- GI50 (LOX IMVI melanoma): 1420 nM
- TGI (LOX IMVI melanoma): 2740 nM
- GI50 (RXF 393 renal): 2510 nM
- TGI (RXF 393 renal): 6750 nM
- GI50 (CCRF-CEM leukemia): 1690 nM
- TGI (CCRF-CEM leukemia): 5040 nM
- GI50 (NCI-H23 lung): 1350 nM
- TGI (NCI-H23 lung): 3180 nM
- GI50 (DU-145 prostate): 2540 nM
- TGI (DU-145 prostate): 7750 nM
- GI50 (SK-OV-3 ovarian): 2560 nM
- TGI (SK-OV-3 ovarian): 11400 nM
